Test results published in PMC11421147 (Journal of Enzyme Inhibition and Medicinal Chemistry, 2024).

Columns and labels:
[1] = test system: human blood paraoxonase-1 (PON1); details: cited from earlier work
[2] = target: T1, human sPLA2 hG-IIA (Homo sapiens, UniProt P14555); test: Inhibition of sPLA2 activity; assay type: biochemical; details: IC50 ± standard deviation; for IC50: IC50 sPLA2(IIA)
T1 sequence (P14555 21-144): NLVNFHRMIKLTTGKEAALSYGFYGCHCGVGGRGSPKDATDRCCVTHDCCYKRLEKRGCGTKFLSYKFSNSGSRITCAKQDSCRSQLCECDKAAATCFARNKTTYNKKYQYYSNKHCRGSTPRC

[3] = target: α-glucosidase (Saccharomyces cerevisiae, UniProt P53341); test: α-Glucosidase inhibitory activity; assay type: biochemical
Sequence of α-glucosidase (P53341 whole entry): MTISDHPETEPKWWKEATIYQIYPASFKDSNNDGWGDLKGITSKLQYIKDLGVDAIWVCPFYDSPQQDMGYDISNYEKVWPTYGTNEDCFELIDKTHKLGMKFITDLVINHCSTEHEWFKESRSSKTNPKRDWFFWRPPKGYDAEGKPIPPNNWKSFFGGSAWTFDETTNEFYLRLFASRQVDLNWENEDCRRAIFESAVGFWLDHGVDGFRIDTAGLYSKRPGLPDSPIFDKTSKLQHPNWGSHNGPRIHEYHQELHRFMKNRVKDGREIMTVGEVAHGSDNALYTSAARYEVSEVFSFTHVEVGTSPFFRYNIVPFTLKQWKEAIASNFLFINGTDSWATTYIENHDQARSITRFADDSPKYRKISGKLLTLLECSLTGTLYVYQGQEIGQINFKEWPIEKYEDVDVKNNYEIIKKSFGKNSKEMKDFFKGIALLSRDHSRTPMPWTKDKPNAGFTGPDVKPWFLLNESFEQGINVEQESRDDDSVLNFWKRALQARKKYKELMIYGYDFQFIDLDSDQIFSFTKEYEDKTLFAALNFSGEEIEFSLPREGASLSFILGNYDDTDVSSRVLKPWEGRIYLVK

Row | SMILES | type of inhibition of PON1 [1] | IC50 [2] [nM] | IC50 sPLA2(IIA) [2] | IC50 [3] [nM]
1 | COc1ccc(OC)c(C(O)CNC(=O)CN)c1 (stereo not shown) [Midodrine] | competitive inhibition | – | – | –
2 | O=S(=O)(NNc1nc2ccccc2nc1NNS(=O)(=O)c1ccc(Br)cc1)c1ccc(Br)cc1 [Compound 6d, N’,N’’’-(quinoxaline-2,3-diyl)bis(4-bromobenzenesulfonohydrazide)] | – | 4930 ± 241 | high micromolar | 8290 ± 367
3 | O=S(=O)(NNc1nc2ccccc2nc1NNS(=O)(=O)c1ccc(C(F)(F)F)cc1)c1ccc(C(F)(F)F)cc1 [Compound 6c, N’,N’’’-(quinoxaline-2,3-diyl)bis(4-trifluoromethylbenzenesulfonohydrazide)] | – | 2240 ± 1050 | – | 95.3 ± 5.4
4 | Cc1ccc(S(=O)(=O)NNc2nc3ccccc3nc2NNS(=O)(=O)c2ccc(C)cc2)cc1 [Compound 6b, N’,N’’’-(quinoxaline-2,3-diyl)bis(4-methylbenzenesulfonohydrazide)] | – | 76.5 ± 1.7 | – | 960 ± 112
5 | Cc1ccc(S(=O)(=O)NNc2nc3ccccc3nc2Cl)cc1 [Compound 5b, N’-(3-chloroquinoxalin-2-yl)-4-methylbenzenesulfonohydrazide] | – | 1520 ± 212 | – | 2790 ± 500
6 | O=S(=O)(NNc1nc2ccccc2nc1Cl)c1ccc(Br)cc1 [Compound 5d, 4-Bromo-N’-(3-chloroquinoxalin-2-yl)benzenesulfonohydrazide] | – | 2120 ± 132 | – | 13300 ± 263
7 | O=S(=O)(NNc1nc2ccccc2nc1NNS(=O)(=O)c1ccccc1)c1ccccc1 [Compound 6a, N’,N’’’-(quinoxaline-2,3-diyl)dibenzenesulfonohydrazide] | – | 47.5 ± 0.8 | – | 3150 ± 32
8 | CC(C)NCC(O)COc1cccc2[nH]ccc12 (stereo not shown) [pindolol] | non-competitive inhibition | – | – | –
9 | CC(C)(C)NCC(O)COc1cccc2c1CC(O)C(O)C2 (stereo not shown) [nadolol] | competitive inhibition | – | – | –
10 | O=S(=O)(NNc1nc2ccccc2nc1Cl)c1ccc(C(F)(F)F)cc1 [Compound 5c, N’-(3-chloroquinoxalin-2-yl)-4-(trifluoromethyl) benzenesulfonohydrazide] | – | 2590 ± 292 | – | 29400 ± 532
11 | CC(C)NCC(O)COc1ccc(CC(N)=O)cc1 (stereo not shown) [atenolol] | non-competitive inhibition | – | – | –
